The source of these data is PubChem BioAssay AID1259407 (Chemical Carcinogenesis Research Information System (CCRIS), 2018).

The source made the active and inactive calls. How the calls were made is not given here.

The subject of this series is CCRIS mutagenicity, Ames/micronucleus/aberration tests. The series is described as follows: CCRIS mutagenicity studies.
The mark [1] stands for this setting: Test System: AMES SALMONELLA TYPHIMURIUM, Strain/Indicator: TA98, Metabolic Activation: NONE, Method: PREINCUBATION
Where [2] appears, read: Test System: AMES SALMONELLA TYPHIMURIUM, Strain/Indicator: TA100, Metabolic Activation: NONE, Method: PREINCUBATION
Where [3] appears, read: Test System: AMES SALMONELLA TYPHIMURIUM, Strain/Indicator: TA100, Metabolic Activation: NONE, Method: STANDARD PLATE.

Consider `O=[N+]([O-])c1cccc2c1oc1ccccc12`, for which the mutagenic call is “active; positive” (Test System: AMES SALMONELLA TYPHIMURIUM, Strain/Indicator: TA98(1,8-DNP6), Metabolic Activation: NONE, Method: PREINCUBATION); “active; positive” (Test System: AMES SALMONELLA TYPHIMURIUM, Strain/Indicator: TA98(1,8-DNP6), Metabolic Activation: NONE, Method: SUSPENSION); “active; positive” (Test System: AMES SALMONELLA TYPHIMURIUM, Strain/Indicator: TA98(1,8-DNP6), Metabolic Activation: RAT, LIVER, S-9, PCB (5%), Method: PREINCUBATION); “active; positive” (Test System: AMES SALMONELLA TYPHIMURIUM, Strain/Indicator: TA98(NR), Metabolic Activation: NONE, Method: PREINCUBATION); “active; positive” (Test System: AMES SALMONELLA TYPHIMURIUM, Strain/Indicator: TA98(NR), Metabolic Activation: NONE, Method: SUSPENSION); “active; positive” (Test System: AMES SALMONELLA TYPHIMURIUM, Strain/Indicator: TA98(NR), Metabolic Activation: RAT, LIVER, S-9 (10%), Method: PREINCUBATION). Also, the mutagenic call is “active; positive” (Test System: AMES SALMONELLA TYPHIMURIUM, Strain/Indicator: TA98(NR), Metabolic Activation: RAT, LIVER, S-9, 3-METHYLCHOLANTHRENE (10%), Method: PREINCUBATION); “active; positive” (Test System: AMES SALMONELLA TYPHIMURIUM, Strain/Indicator: TA98(NR), Metabolic Activation: RAT, LIVER, S-9, BETA-NAPHTHOFLAVONE (10%), Method: PREINCUBATION); “active; positive” (Test System: AMES SALMONELLA TYPHIMURIUM, Strain/Indicator: TA98(NR), Metabolic Activation: RAT, LIVER, S-9, PCB (5%), Method: PREINCUBATION); “active; positive” (Test System: AMES SALMONELLA TYPHIMURIUM, Strain/Indicator: TA98(NR), Metabolic Activation: RAT, LIVER, S-9, PCB (10%), Method: PREINCUBATION); “active; positive” (Test System: AMES SALMONELLA TYPHIMURIUM, Strain/Indicator: TA98(NR), Metabolic Activation: RAT, LIVER, S-9, PHENOBARBITAL (10%), Method: PREINCUBATION); “active; positive” under setting [1]. For the same compound, the mutagenic call was “active; positive” (Test System: AMES SALMONELLA TYPHIMURIUM, Strain/Indicator: TA98, Metabolic Activation: NONE, Method: SUSPENSION); “active; positive” (Test System: AMES SALMONELLA TYPHIMURIUM, Strain/Indicator: TA98, Metabolic Activation: RAT, LIVER, S-9, PCB (5%), Method: PREINCUBATION); “active; positive” (Test System: AMES SALMONELLA TYPHIMURIUM, Strain/Indicator: TA98, Metabolic Activation: RAT, LIVER, S-9, PCB, Method: SUSPENSION); “inactive; negative” under setting [2]; “active; positive” (Test System: AMES SALMONELLA TYPHIMURIUM, Strain/Indicator: TA100, Metabolic Activation: NONE, Method: SUSPENSION); “active; positive” (Test System: AMES SALMONELLA TYPHIMURIUM, Strain/Indicator: TA100, Metabolic Activation: RAT, LIVER, S-9, PCB (5%), Method: PREINCUBATION). Besides, the mutagenic call (Test System: AMES SALMONELLA TYPHIMURIUM, Strain/Indicator: TA100, Metabolic Activation: RAT, LIVER, S-9, PCB, Method: SUSPENSION) is “active; positive”.
As to `N#CCc1ccc(Cl)cc1`, the mutagenic call is “inactive; negative” under setting [1]; “inactive; negative” (Test System: AMES SALMONELLA TYPHIMURIUM, Strain/Indicator: TA98, Metabolic Activation: RAT, LIVER, S-9, PHENOBARBITAL AND BETA-NAPHTHOFLAVONE, Method: PREINCUBATION); “inactive; negative” under setting [2]; “inactive; negative” (Test System: AMES SALMONELLA TYPHIMURIUM, Strain/Indicator: TA100, Metabolic Activation: RAT, LIVER, S-9, PHENOBARBITAL AND BETA-NAPHTHOFLAVONE, Method: PREINCUBATION); “inactive; negative” (Test System: AMES SALMONELLA TYPHIMURIUM, Strain/Indicator: TA102, Metabolic Activation: NONE, Method: PREINCUBATION); “inactive; negative” (Test System: AMES SALMONELLA TYPHIMURIUM, Strain/Indicator: TA102, Metabolic Activation: RAT, LIVER, S-9, SODIUM PHENOBARBITAL AND 5,6-BENZOFLAVONE, Method: PREINCUBATION). For the same compound, the mutagenic call (Test System: AMES SALMONELLA TYPHIMURIUM, Strain/Indicator: TA104, Metabolic Activation: NONE, Method: PREINCUBATION) was “inactive; negative”; the mutagenic call (Test System: AMES SALMONELLA TYPHIMURIUM, Strain/Indicator: TA104, Metabolic Activation: RAT, LIVER, S-9, SODIUM PHENOBARBITAL AND 5,6-BENZOFLAVONE, Method: PREINCUBATION) is “inactive; negative”; the mutagenic call (Test System: AMES SALMONELLA TYPHIMURIUM, Strain/Indicator: TA1535, Metabolic Activation: NONE, Method: PREINCUBATION) was “inactive; negative”; the mutagenic call (Test System: AMES SALMONELLA TYPHIMURIUM, Strain/Indicator: TA1535, Metabolic Activation: RAT, LIVER, S-9, PHENOBARBITAL AND BETA-NAPHTHOFLAVONE, Method: PREINCUBATION) was “inactive; negative”; the mutagenic call (Test System: AMES SALMONELLA TYPHIMURIUM, Strain/Indicator: TA1537, Metabolic Activation: NONE, Method: PREINCUBATION) was “inactive; negative”; the mutagenic call (Test System: AMES SALMONELLA TYPHIMURIUM, Strain/Indicator: TA1537, Metabolic Activation: RAT, LIVER, S-9, PHENOBARBITAL AND BETA-NAPHTHOFLAVONE, Method: PREINCUBATION) is “inactive; negative”. The mutagenic call by setting is: (Test System: E. COLI, Strain/Indicator: WP2UVRA/PKM101, Metabolic Activation: NONE, Method: PREINCUBATION) “inactive; negative”; (Test System: E. COLI, Strain/Indicator: WP2UVRA/PKM101, Metabolic Activation: RAT, LIVER, S-9, PHENOBARBITAL AND BETA-NAPHTHOFLAVONE, Method: PREINCUBATION) “inactive; negative”; (Test System: E. COLI, Strain/Indicator: WP2UVRA, Metabolic Activation: NONE, Method: PREINCUBATION) “inactive; negative”; (Test System: E. COLI, Strain/Indicator: WP2UVRA, Metabolic Activation: RAT, LIVER, S-9, PHENOBARBITAL AND BETA-NAPHTHOFLAVONE, Method: PREINCUBATION) “inactive; negative”.
Consider `CCCCc1c(N)ccc2ccccc12`, for which the mutagenic call is “inactive; negative” (Test System: AMES SALMONELLA TYPHIMURIUM, Strain/Indicator: TA98, Metabolic Activation: NONE, Method: STANDARD PLATE); “active; positive” (Test System: AMES SALMONELLA TYPHIMURIUM, Strain/Indicator: TA98, Metabolic Activation: RAT LIVER S-9, AROCLOR, Method: STANDARD PLATE); “inactive; negative” under setting [3]; “active; positive” (Test System: AMES SALMONELLA TYPHIMURIUM, Strain/Indicator: TA100, Metabolic Activation: RAT LIVER S-9, AROCLOR, Method: STANDARD PLATE).
`c1ccc2cc3c(cc2c1)c1c(c2ccccc23)O1`: the mutagenic call under setting [3] is “active; positive”.
Regarding `CC(=O)C1=CC[C@H]2C3=CCC4=C[C@@H](O)[C@H](O)C[C@]4(C)C3C[C@@H](O)[C@]12C` (stereo partly specified), the mutagenic call (Test System: AMES SALMONELLA TYPHIMURIUM, Strain/Indicator: TM677, Metabolic Activation: NONE, Method: STANDARD PLATE) was “inactive; negative”; the mutagenic call (Test System: AMES SALMONELLA TYPHIMURIUM, Strain/Indicator: TM677, Metabolic Activation: RAT, LIVER, S-9, AROCLOR 1254, Method: STANDARD PLATE) was “inactive; negative”; the mutagenic call (Test System: CHINESE HAMSTER OVARY, Strain/Indicator: CHO/6-THIOGUANINE, Metabolic Activation: NONE, Method: STANDARD PLATE) is “inactive; negative”.
For the compound `CCCCCCC1CO1` (stereo unspecified), the mutagenic call was “inactive; negative” under setting [3]; “inactive; negative” (Test System: AMES SALMONELLA TYPHIMURIUM, Strain/Indicator: TA1535, Metabolic Activation: NONE, Method: STANDARD PLATE); “inactive; negative” (Test System: UDS RAT HEPATOCYTES, Strain/Indicator: THY INCORP, Metabolic Activation: NONE).
